Patent US9540289B2, “Chelated compositions and methods of making and using the same” (Scott G. Williams, LLC, priority 2010, dated 2017)

Assay: Titration of 1% w/w solution with 0.5 M NaOH until precipitate forms
Assay type: physicochemical
Method: The finished material was tested by titration with 0.5 M NaOH. A 1% w/w solution was made of the material by placing 1.0042 g in a 100 mL of deionized water. 0.5 M NaOH was then titrated into this solution. The material absorbed 23.8 mL of the 0.5 M NaOH while the solution pH rose from about 2 to about 10.2, whereupon a precipitate formed.

0.5 M NaOH absorbed until a precipitate formed (1% w/w solution in 100 mL deionized water, titrated with 0.5 M NaOH): 5.8 mL
solution pH at which a precipitate formed (1% w/w solution titrated with 0.5 M NaOH): above 10.2
Substance: zinc EDTA chelate [pure zinc EDTA chelate]
